Data as given in PMC4175002, “The Design and Synthesis of Potent and Selective Inhibitors of Trypanosoma brucei Glycogen Synthase Kinase 3 for the Treatment of Human African Trypanosomiasis” (Journal of Medicinal Chemistry, 2014).

Columns and labels:
Assay in all cases: Mammalian kinase profiling (DSTT panel)
Format in all cases: biochemical
Settings in all cases: 10 μM; average percentage of remaining activity
[1] = molecular target: T1, PDK1 (Homo sapiens, UniProt O15530)
T1 construct: purchased Division of Signal Transduction Therapy (DSTT), University of Dundee
T1 sequence (O15530 1-556): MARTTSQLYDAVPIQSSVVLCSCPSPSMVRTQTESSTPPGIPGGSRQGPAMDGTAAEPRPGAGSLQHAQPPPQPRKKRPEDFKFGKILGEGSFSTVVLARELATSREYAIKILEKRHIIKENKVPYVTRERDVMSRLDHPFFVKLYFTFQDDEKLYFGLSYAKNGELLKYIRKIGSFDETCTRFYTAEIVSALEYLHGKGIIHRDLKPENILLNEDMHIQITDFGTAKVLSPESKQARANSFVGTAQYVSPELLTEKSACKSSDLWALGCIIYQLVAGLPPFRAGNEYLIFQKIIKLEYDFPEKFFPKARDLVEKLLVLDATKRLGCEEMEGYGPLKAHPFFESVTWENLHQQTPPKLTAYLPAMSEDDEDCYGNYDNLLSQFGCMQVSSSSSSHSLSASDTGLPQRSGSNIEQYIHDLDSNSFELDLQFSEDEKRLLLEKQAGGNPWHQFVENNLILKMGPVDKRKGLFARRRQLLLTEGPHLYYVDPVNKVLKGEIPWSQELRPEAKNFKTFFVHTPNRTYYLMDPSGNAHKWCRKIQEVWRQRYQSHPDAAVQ
Method: (§1) To assess the selectivity of the aminopyrazole inhibitors, remaining activity at 10 μM concentration was measured for compounds 4f, 4m, and 4y against a panel of 80 human PKs and for compound 9g against 124 human PKs. […] Compound 4m inhibited only two PKs, namely GSK3β and CDK2, at more than 80%.
(§2) Selected compounds were screened against a panel of mammalian kinases routinely run by the Division of Signal Transduction Therapy (DSTT) at the University of Dundee in duplicate at 10 μM.[32] Enzymes included in the panel and assay conditions are reported in the literature. All biochemical assays are run below the Km^app for the ATP for each enzyme, allowing comparison of inhibition across the panel.

[2] = molecular target: T2, EPH A2 (Homo sapiens, UniProt P29317)
T2 construct: purchased Division of Signal Transduction Therapy (DSTT), University of Dundee
T2 sequence (P29317 24-976): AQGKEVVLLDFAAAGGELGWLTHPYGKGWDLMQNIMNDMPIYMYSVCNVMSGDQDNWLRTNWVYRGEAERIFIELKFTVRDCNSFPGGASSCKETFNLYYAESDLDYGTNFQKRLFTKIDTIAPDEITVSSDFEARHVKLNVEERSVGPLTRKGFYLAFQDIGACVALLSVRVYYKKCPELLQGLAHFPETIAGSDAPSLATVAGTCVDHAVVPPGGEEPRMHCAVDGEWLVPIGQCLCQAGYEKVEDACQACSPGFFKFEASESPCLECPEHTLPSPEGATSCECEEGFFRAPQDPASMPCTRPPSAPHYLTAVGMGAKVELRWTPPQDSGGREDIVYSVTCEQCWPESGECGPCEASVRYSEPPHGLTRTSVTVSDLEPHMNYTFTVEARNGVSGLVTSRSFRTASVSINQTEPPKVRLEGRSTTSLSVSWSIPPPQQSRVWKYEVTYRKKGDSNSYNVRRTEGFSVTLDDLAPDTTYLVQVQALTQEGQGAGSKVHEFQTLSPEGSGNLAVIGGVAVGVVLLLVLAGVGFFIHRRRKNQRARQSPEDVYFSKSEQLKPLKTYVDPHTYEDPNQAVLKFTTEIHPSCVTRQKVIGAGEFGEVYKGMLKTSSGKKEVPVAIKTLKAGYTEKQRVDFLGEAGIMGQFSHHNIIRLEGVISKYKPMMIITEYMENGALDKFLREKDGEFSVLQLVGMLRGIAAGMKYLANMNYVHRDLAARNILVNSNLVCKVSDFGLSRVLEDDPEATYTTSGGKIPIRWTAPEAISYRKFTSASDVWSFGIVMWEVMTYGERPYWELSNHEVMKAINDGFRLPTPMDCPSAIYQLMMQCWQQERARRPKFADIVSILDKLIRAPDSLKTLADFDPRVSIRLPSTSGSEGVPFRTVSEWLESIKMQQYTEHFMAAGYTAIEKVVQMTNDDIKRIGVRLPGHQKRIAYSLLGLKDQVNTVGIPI
Method: as §1, §2

[3] = molecular target: T3, IRR (Homo sapiens, UniProt P14616)
T3 construct: purchased Division of Signal Transduction Therapy (DSTT), University of Dundee
T3 sequence (P14616 27-1297): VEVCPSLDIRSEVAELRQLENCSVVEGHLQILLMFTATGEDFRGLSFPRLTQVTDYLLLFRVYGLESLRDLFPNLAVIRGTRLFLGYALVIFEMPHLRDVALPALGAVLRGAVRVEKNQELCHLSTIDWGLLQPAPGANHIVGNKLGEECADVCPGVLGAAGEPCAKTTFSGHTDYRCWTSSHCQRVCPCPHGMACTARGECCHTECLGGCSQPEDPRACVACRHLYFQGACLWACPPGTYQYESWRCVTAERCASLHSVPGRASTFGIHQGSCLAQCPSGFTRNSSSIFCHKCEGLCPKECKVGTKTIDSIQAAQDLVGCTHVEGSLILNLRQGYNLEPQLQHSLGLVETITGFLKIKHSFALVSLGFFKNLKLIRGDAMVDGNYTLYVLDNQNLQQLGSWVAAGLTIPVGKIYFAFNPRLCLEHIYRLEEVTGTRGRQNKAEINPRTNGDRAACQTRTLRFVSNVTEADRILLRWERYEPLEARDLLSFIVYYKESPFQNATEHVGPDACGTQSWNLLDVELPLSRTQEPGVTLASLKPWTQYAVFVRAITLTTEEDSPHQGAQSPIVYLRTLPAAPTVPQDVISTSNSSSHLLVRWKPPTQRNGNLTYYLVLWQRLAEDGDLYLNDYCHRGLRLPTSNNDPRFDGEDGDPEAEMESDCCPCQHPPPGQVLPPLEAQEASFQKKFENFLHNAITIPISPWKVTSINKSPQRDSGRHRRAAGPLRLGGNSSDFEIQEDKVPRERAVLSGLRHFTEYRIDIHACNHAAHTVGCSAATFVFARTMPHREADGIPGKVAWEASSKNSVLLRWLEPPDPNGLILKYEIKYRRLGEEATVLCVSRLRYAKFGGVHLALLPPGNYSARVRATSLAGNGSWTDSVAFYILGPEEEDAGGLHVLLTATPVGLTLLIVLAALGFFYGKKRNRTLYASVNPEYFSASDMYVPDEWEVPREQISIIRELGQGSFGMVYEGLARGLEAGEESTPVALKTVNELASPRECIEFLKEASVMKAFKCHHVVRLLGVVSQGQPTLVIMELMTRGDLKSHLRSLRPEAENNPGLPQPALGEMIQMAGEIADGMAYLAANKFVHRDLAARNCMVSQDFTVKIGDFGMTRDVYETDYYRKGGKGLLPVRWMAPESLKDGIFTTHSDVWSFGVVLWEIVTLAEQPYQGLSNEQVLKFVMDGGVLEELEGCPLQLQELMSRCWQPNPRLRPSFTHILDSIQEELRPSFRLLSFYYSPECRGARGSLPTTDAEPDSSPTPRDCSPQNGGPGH
Method: as §1, §2

[4] = molecular target: T4, P38g MAPK (Homo sapiens, UniProt P53778)
T4 construct: purchased Division of Signal Transduction Therapy (DSTT), University of Dundee
T4 sequence (P53778 1-367): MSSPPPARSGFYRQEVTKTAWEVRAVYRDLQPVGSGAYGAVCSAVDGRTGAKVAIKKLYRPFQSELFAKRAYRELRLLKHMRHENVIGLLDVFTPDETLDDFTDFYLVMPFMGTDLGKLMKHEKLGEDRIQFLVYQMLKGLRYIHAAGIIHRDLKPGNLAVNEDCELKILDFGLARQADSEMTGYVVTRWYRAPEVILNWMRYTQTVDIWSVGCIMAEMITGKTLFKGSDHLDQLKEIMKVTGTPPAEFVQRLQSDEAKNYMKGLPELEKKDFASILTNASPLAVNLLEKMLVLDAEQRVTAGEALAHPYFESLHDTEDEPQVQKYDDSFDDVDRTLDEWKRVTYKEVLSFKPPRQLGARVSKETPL
Method: as §1, §2

[5] = molecular target: T5, NEK2a (Homo sapiens, UniProt P51955)
T5 construct: purchased Division of Signal Transduction Therapy (DSTT), University of Dundee
T5 sequence (P51955 1-445): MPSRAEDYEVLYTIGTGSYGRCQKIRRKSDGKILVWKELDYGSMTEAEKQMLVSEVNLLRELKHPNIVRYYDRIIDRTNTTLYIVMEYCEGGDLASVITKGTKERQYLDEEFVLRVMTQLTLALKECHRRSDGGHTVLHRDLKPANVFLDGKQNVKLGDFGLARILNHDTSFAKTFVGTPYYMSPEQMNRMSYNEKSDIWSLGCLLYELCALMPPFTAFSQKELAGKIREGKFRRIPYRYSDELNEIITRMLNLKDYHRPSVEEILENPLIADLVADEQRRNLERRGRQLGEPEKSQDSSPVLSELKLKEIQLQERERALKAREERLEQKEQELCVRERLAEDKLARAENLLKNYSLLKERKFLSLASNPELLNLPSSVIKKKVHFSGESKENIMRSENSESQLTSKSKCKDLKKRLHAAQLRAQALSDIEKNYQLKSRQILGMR
Method: as §1, §2

[6] = molecular target: T6, P38a MAPK (Homo sapiens, UniProt Q16539)
T6 construct: purchased Division of Signal Transduction Therapy (DSTT), University of Dundee
T6 sequence (Q16539 whole entry): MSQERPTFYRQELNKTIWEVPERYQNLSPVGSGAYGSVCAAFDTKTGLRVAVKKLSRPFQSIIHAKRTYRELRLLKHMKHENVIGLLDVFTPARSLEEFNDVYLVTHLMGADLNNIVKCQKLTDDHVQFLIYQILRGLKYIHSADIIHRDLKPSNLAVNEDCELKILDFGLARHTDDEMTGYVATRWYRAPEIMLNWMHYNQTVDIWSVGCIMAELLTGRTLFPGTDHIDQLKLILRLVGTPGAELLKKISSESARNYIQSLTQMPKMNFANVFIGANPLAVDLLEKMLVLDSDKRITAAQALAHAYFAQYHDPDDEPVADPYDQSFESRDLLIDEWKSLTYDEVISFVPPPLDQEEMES
Method: as §1, §2

[7] = molecular target: T7, CHK2 (Homo sapiens, UniProt O96017)
T7 construct: purchased Division of Signal Transduction Therapy (DSTT), University of Dundee
T7 sequence (O96017 whole entry): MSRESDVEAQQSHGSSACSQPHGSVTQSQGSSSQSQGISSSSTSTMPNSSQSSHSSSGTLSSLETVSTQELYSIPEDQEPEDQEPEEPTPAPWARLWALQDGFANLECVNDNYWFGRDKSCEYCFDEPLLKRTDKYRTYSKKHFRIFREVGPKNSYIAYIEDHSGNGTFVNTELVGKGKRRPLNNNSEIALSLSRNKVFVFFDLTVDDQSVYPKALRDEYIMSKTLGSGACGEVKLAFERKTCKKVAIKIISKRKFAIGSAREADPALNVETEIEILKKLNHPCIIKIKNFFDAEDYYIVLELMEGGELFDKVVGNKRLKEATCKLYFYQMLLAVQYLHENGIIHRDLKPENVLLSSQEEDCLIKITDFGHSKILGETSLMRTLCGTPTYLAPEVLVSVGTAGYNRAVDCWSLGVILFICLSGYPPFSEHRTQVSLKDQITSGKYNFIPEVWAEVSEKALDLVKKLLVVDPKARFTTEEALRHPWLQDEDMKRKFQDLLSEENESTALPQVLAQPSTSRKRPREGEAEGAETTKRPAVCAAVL
Method: as §1, §2

[8] = molecular target: T8, MST2 (Homo sapiens, UniProt Q13188)
T8 construct: purchased Division of Signal Transduction Therapy (DSTT), University of Dundee
T8 sequence (Q13188 1-491): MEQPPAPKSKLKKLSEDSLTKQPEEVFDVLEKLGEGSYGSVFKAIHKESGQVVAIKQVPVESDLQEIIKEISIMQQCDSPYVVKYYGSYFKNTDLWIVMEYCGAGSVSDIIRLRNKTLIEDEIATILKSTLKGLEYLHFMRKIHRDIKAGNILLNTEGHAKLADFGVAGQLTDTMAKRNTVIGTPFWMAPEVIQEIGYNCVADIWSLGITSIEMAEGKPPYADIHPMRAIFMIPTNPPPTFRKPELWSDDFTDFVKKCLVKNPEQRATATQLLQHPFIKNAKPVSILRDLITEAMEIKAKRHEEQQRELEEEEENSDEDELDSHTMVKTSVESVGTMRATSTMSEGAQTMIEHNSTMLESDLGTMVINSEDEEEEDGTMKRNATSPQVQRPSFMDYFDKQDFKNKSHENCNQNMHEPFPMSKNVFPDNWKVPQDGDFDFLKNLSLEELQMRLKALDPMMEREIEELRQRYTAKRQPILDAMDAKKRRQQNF
Method: as §1, §2

SMILES	PDK1 activity compared to the control [1] [%]	EPH A2 activity compared to the control [2] [%]	IRR activity compared to the control [3] [%]	P38g MAPK activity compared to the control [4] [%]	NEK2a activity compared to the control [5] [%]	P38a MAPK activity compared to the control [6] [%]	CHK2 activity compared to the control [7] [%]	MST2 activity compared to the control [8] [%]
CO[C@H]1CC[C@H](NC(=O)c2n[nH]cc2NC(=O)c2ccccc2)CC1 [Compound 4f, 4-Benzamido-N-(4-methoxycyclohexyl)-1H-pyrazole-3-carboxamide]	87	100	39	60	100	81	100	72
COc1cccc(OC)c1C(=O)Nc1c[nH]nc1C(=O)NC1CCC(OC)CC1 (stereo not drawn) [Compound 4m, 4-(2,6-Dimethoxybenzamido)-N-(4-methoxycyclohexyl)-1H-pyrazole-3-carboxamide]	87	100	87	72	99	80	75	81
CO[C@H]1CC[C@H](NC(=O)c2n[nH]cc2NC(=O)c2ccc(-c3ccccc3)o2)CC1 [Compound 4y, N-(4-Methoxycyclohexyl)-4-(5-phenylfuran-2-carboxamido)-1H-pyrazole-3-carboxamide]	86	100	26	24	69	71	51	69
